Reference: patent US11124538B2, “Neuroactive steroids, compositions, and uses thereof” (Sage Therapeutics, Inc., priority 2015, dated 2021)

Target: [35S]-TBPS binding to rat brain cortical membranes in the presence of 5 μM GABA (GABA receptor complex)
Experiment: Steroid inhibition of [35S]-TBPS binding (radioligand displacement)
Conditions: 3 nM [35S]-TBPS
Method: TBPS binding assays using rat brain cortical membranes in the presence of 5 μM GABA has been described (Gee et al, J. Pharmacol. Exp. Ther. 1987, 241, 346-353; Hawkinson et al, Mol. Pharmacol. 1994, 46, 977-985; Lewin, A. H et al., Mol. Pharmacol. 1989, 35, 189-194).
Briefly, cortices are rapidly removed following decapitation of carbon dioxide-anesthetized Sprague-Dawley rats (200-250 g). The cortices are homogenized in 10 volumes of ice-cold 0.32 M sucrose using a glass/teflon homogenizer and centrifuged at 1500×g for 10 min at 4° C. The resultant supernatants are centrifuged at 10,000×g for 20 min at 4° C. to obtain the P2 pellets. The P2 pellets are resuspended in 200 mM NaCl/50 mM Na—K phosphate pH 7.4 buffer and centrifuged at 10,000×g for 10 min at 4° C. This washing procedure is repeated twice and the pellets are resuspended in 10 volumes of buffer. Aliquots (100 μL) of the membrane suspensions are incubated with 3 nM [^35S]-TBPS and 5 μL aliquots of test drug dissolved in dimethyl sulfoxide (DMSO) (final 0.5%) in the presence of 5 μM GABA. The incubation is brought to a final volume of 1.0 mL with buffer. […] Following a 90 min incubation at room temp, the assays are terminated by filtration through glass fiber filters (Schleicher and Schuell No. 32) using a cell harvester (Brandel) and rinsed three times with ice-cold buffer. Filter bound radioactivity is measured by liquid scintillation spectrometry. Non-linear curve fitting of the overall data for each drug averaged for each concentration is done using Prism (GraphPad). […] The concentration of test compound producing 50% inhibition (IC50) of specific binding and the maximal extent of inhibition (Imax) are determined for the individual experiments with the same model used for the overall data and then the means±SEM.s of the individual experiments are calculated.
Various compounds are or can be screened to determine their potential as modulators of [^35S]-TBPS binding in vitro. These assays are or can be performed in accordance with the above discussed procedures.

Compound | IC50 [µM]
COC[C@]12CC[C@@](C)(O)C[C@H]1CC[C@H]1[C@@H]3CC[C@H](C(=O)Cn4ncc5ccc(F)cc54)[C@@]3(C)CC[C@@H]12 [Compound 15] | < 0.01
COC[C@]12CC[C@@](C)(O)C[C@@H]1CC[C@H]1[C@@H]3CC[C@H](C(=O)Cn4nnc5c(F)c(Cl)ccc54)[C@@]3(C)CC[C@@H]12 [Compound 51] | < 0.01
COC[C@]12CC[C@@](C)(O)C[C@H]1CC[C@H]1[C@@H]3CC[C@H](C(=O)Cn4nc5cc(F)cc(F)c5n4)[C@@]3(C)CC[C@@H]12 [Compound 10] | < 0.01
COC[C@]12CC[C@@](C)(O)C[C@H]1CC[C@H]1[C@@H]3CC[C@H](C(=O)Cn4nc5cccc(OC)c5n4)[C@@]3(C)CC[C@@H]12 [Compound 30] | < 0.01
CC(C)OC[C@]12CC[C@@](C)(O)C[C@H]1CC[C@H]1[C@@H]3CC[C@H](C(=O)Cn4nnc5ccc(F)c(F)c54)[C@@]3(C)CC[C@@H]12 [Compound 69] | < 0.01
COC[C@]12CC[C@@](C)(O)C[C@H]1CC[C@H]1[C@@H]3CC[C@H](C(=O)Cn4nnc5ccccc54)[C@@]3(C)CC[C@@H]12 [Compound 18] | < 0.01
COC[C@]12CC[C@@](C)(O)C[C@H]1CC[C@H]1[C@@H]3CC[C@H](C(=O)Cn4nnc5cccc(OC)c54)[C@@]3(C)CC[C@@H]12 [Compound 29] | < 0.01
CC(C)OC[C@]12CC[C@@](C)(O)C[C@H]1CC[C@H]1[C@@H]3CC[C@H](C(=O)Cn4ncnn4)[C@@]3(C)CC[C@@H]12 [Compound 72] | < 0.01
COC[C@]12CC[C@@](C)(O)C[C@H]1CC[C@H]1[C@@H]3CC[C@H](C(=O)Cn4nnc5ccc(OC)cc54)[C@@]3(C)CC[C@@H]12 [Compound 25] | < 0.01
COC[C@]12CC[C@@](C)(O)C[C@H]1CC[C@H]1[C@@H]3CC[C@H](C(=O)Cn4nnc5c(OC)cccc54)[C@@]3(C)CC[C@@H]12 [Compound 28] | < 0.01
COC[C@]12CC[C@@](C)(O)C[C@H]1CC[C@H]1[C@@H]3CC[C@H](C(=O)Cn4cc5ccncc5n4)[C@@]3(C)CC[C@@H]12 [Compound 46] | 0.01 to 0.05
COC[C@]12CC[C@@](C)(O)C[C@H]1CC[C@H]1[C@@H]3CC[C@H](C(=O)Cn4nnc5cc(OC)ccc54)[C@@]3(C)CC[C@@H]12 [Compound 26] | < 0.01
COC[C@]12CC[C@@](C)(O)C[C@@H]1CC[C@H]1[C@@H]3CC[C@H](C(=O)Cn4cc([S+](C)[O-])cn4)[C@@]3(C)CC[C@@H]12 (stereo partly shown) [Compound 35] | > 0.5
CC(C)OC[C@]12CC[C@@](C)(O)C[C@H]1CC[C@H]1[C@@H]3CC[C@H](C(=O)Cn4nc5ccc(F)c(F)c5n4)[C@@]3(C)CC[C@@H]12 [Compound 70] | < 0.01
COC[C@]12CC[C@@](C)(O)C[C@H]1CC[C@H]1[C@@H]3CC[C@H](C(=O)Cn4cc5ccc(F)cc5n4)[C@@]3(C)CC[C@@H]12 [Compound 14] | < 0.01
COC[C@]12CC[C@@](C)(O)C[C@H]1CC[C@H]1[C@@H]3CC[C@H](C(=O)Cn4nc5cc(Cl)cnc5n4)[C@@]3(C)CC[C@@H]12 [Compound 13] | < 0.01
COC[C@]12CC[C@@](C)(O)C[C@H]1CC[C@H]1[C@@H]3CC[C@H](C(=O)Cn4nnc5cc(Cl)cnc54)[C@@]3(C)CC[C@@H]12 [Compound 12] | < 0.01
COC[C@]12CC[C@@](C)(O)C[C@@H]1CC[C@H]1[C@@H]3CC[C@H](C(=O)Cn4ncc(CO)n4)[C@@]3(C)CC[C@@H]12 [Compound 85] | > 0.5
COC[C@]12CC[C@@](C)(O)C[C@H]1CC[C@H]1[C@@H]3CC[C@H](C(=O)Cn4nc5ccc(OC)cc5n4)[C@@]3(C)CC[C@@H]12 [Compound 27] | < 0.01
COC[C@]12CC[C@@](C)(O)C[C@@H]1CC[C@H]1[C@@H]3CC[C@H](C(=O)Cn4ncc(C(=O)O)n4)[C@@]3(C)CC[C@@H]12 [Compound 81] | > 0.5
COC[C@]12CC[C@@](C)(O)C[C@H]1CC[C@H]1[C@@H]3CC[C@H](C(=O)Cn4nc5ccc(Cl)c(F)c5n4)[C@@]3(C)CC[C@@H]12 [Compound 24] | < 0.01
COC[C@]12CC[C@@](C)(O)C[C@H]1CC[C@H]1[C@@H]3CC[C@H](C(=O)Cn4cc(SC)cn4)[C@@]3(C)CC[C@@H]12 [Compound 21] | < 0.01
CC(C)OC[C@]12CC[C@@](C)(O)C[C@H]1CC[C@H]1[C@@H]3CC[C@H](C(=O)Cn4nnc5c(F)c(F)ccc54)[C@@]3(C)CC[C@@H]12 [Compound 68] | < 0.01
COC[C@]12CC[C@@](C)(O)C[C@@H]1CC[C@H]1[C@@H]3CC[C@H](C(=O)Cn4cc(C(=O)O)nn4)[C@@]3(C)CC[C@@H]12 [Compound 82] | > 0.5
COC[C@]12CC[C@@](C)(O)C[C@@H]1CC[C@H]1[C@@H]3CC[C@H](C(=O)Cn4cc(SC)cn4)[C@@]3(C)CC[C@@H]12 [Compound 34] | 0.01 to 0.05
